Starred links: 1 amine or outer side, 2 acyl side, 3 side chain; linkers in the order of their positions; H or OH if unused. Non-standard residues stand in square brackets, D forms with d. Residues, ends and D or L forms follow the SMILES beside them. NMeAbu(3S-Me,4-OC2H4Mor) = CN[C@H](C(=O)O)[C@H](C)COCCN1CCOCC1; X16 = C[C@H](CN1CCN(S(C)(=O)=O)CC1)[C@@H](C(=O)[*:2])N(C)[*:1]; X7 = C[C@H](COCCN1CCS(=O)(=O)CC1)[C@@H](C(=O)[*:2])N(C)[*:1]; X12 = C[C@@H](CN1CCN(C2CCC2)CC1)[C@@H](C(=O)[*:2])N(C)[*:1]; X6 = C[C@@H](CN1CCN(C2COC2)CC1)[C@@H](C(=O)[*:2])N(C)[*:1]; X79 = COCCN1CCN(CC[C@@H](C)[C@@H](C(=O)[*:2])N(C)[*:1])CC1; X11 = CCN1CCN(C[C@H](C)[C@@H](C(=O)[*:2])N(C)[*:1])CC1; MeBmt = C/C=C/C[C@@H](C)[C@@H](O)[C@H](NC)C(=O)O; X2 = COCC[C@@H](C)[C@@H](C(=O)[*:2])N(C)[*:1]; NMeL = CN[C@@H](CC(C)C)C(=O)O; NMeV = CN[C@H](C(=O)O)C(C)C; dNMeA = CN[C@H](C)C(=O)O; Abu = CC[C@H](N)C(=O)O
Tests used:
[1] = target: CYP3A4 (Homo sapiens (Human), UniProt P08684); assay: Time-dependent inhibition of CYP3A4;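 further: Two-step in vitro assay, kobs derived from residual CYP3A4 activity versus preincubation time per concentration, then kinact and KI by nonlinear fit of kobs against concentration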
Experimental: Method 5: Measuring Time-Dependent Inhibition of CYP3A4
The CYP3A4 time dependent inhibition potential of various inhibitors was determined by a two step in vitro assay. […] The inactivation rate constant (kobs) was obtained by plotting the activity remaining over pre-incubation time for each concentration of compound. The maximal inactivation rate (kinact) and the inactivation potency (KI) were calculated by non linear regression analysis of the inactivation rate constant (kobs) versus compound concentrations [I] curve according to the equation kobs=[kinact·[I]]/[KI+[I]]

[2] = target: organic anion transporting polypeptide 1B1 (OATP1B1) (Homo sapiens (Human), UniProt Q9Y6L6); assay: OATP assay in CHO-OATP1B1 cells;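 further: inhibition of probe substrate uptake into the cells, ten minutes exposure, accumulated substrate read by fluorescence once cells were lysed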
Experimental: In order to determine whether the compounds of the present invention interact with hepatic transporters, experiments were carried out that compared the concentration-dependent inhibition toward the organic anion transporting polypeptide 1B1 (OATP1B1) and the multidrug resistance associated protein 2 (MRP2).
The cells were cultured in DMEM/F12 +10% FBS+2 mM Ala-Gln+1% Pen-Strep for a period of two days, and the media was changed one day post-seeding. Prior to the assay, media was aspirated and were washed −3× with HBSS+10 mM HEPES and the solution was equilibrated for 15 min in HBSS+10 mM HEPES. Solutions containing the inhibitor were prepared in HBSS+10 mM HEPES (up to 1% DMSO). […] After 10 min, the substrate or substrate/inhibitor solution was aspirated and the cells were washed 3× with HBSS+10 mM HEPES. The amount of the transported probe substrate was determined by fluorescent photometry after cell lysis, and the IC50 was derived from the concentration-response curve.

[3] = target: cyclophilin A (CypA) (Homo sapiens (Human), UniProt P62937); assay: Inhibitor binding to cyclophilin proteins by SPR, CypA; design: unit not given here; settings: 1:1 binding model;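 further: Single-cycle kinetics on a Biacore T200, compound injected at several concentrations for 1 min each at 50 µL/min, then 10 min dissociation, in HEPES pH 7.4 buffer with 3% DMSO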
[4] = target: cyclophilin B (CypB) (Homo sapiens (Human), UniProt P23284); assay: Inhibitor binding to cyclophilin proteins by SPR, CypB; design: unit not given here; settings: 1:1 binding model
In short: (§1)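 Mono-biotinylated avi-tagged cyclophilins were captured on a Biotin CAPture chip and compound injected by single-cycle kinetics in 10 mM HEPES pH 7.4, 150 mM NaCl, 0.05% P20, 3% DMSO. Contact 1 min per concentration at 50 μL/min, 10 min final dissociation; 1:1 model fit gave kon, koff, KD.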

[5] = system: genotype 1b subgenomic HCV replicon in Huh7.5 cells; format: cell-based, hepatitis C virus; settings: genotype 1b replicon, 72 h incubation; read-out: RPLN-1b IC50
In short: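 Huh7.5 cells carrying genotype 1b subgenomic HCV replicon with renilla luciferase-neomycin reporter, in phenol red-free DMEM without G418. Luciferase measured after 72 h compound exposure relative to DMSO-treated cells; cytotoxicity (CC50) by Cell Titer-Glo.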

[6] = target: CypF (Homo sapiens (Human), UniProt P30405); assay: Inhibitor binding to cyclophilin proteins by SPR, CypF; settings: 1:1 binding model
In short: as §1

[7] = target: Human MRP2 (Homo sapiens (Human), UniProt Q92887); assay: MRP2 transporter vesicle assay; format: in vitro ADME
Experimental: Method 4: Measuring Hepatic Transporter Interactions […] […] MRP2 Assay: Human MRP2 inhibition was tested using a BD Gentest Transporter Vesicle Assay Kit. Inside-out vesicles were prepared from insect Sf9 cells infected with baculovirus expressing hMRP2. […] The percent remaining of ATP dependent uptake activity was calculated as uptake activity in the presence of inhibitor divided by the uptake activity in the absence of inhibitor.

[8] = system: peripheral blood mononuclear cells (PBMC); assay: Anti-proliferative or immunosuppressive activity, BrdU incorporation in PHA-stimulated PBMC; format: cell-based; settings: PHA 3 μg/ml, 60 hour compound treatment; read-out: EMV PBMC IC50
In short: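 Fresh PBMCs from two donors, 30,000 per well in X-VIVO 15 medium, stimulated with 3 μg/ml PHA to drive T-cell proliferation. Proliferation measured as BrdU incorporation into DNA by BrdU ELISA.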

Chain of CYP3A4 (P08684 whole entry): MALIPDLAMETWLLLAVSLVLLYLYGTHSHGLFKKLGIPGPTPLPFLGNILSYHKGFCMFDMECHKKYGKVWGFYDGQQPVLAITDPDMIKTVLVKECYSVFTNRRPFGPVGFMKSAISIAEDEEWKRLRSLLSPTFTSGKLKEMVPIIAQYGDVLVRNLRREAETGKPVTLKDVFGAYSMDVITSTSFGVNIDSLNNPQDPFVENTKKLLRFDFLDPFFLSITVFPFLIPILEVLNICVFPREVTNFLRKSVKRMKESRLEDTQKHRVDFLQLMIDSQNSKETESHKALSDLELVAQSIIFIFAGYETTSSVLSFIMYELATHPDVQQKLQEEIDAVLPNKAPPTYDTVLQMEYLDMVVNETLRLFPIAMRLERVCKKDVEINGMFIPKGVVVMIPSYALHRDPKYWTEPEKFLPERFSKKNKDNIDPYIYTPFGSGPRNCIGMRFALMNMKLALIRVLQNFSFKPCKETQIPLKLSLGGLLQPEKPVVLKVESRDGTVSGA
Chain of cyclophilin B (CypB) (P23284 34-216): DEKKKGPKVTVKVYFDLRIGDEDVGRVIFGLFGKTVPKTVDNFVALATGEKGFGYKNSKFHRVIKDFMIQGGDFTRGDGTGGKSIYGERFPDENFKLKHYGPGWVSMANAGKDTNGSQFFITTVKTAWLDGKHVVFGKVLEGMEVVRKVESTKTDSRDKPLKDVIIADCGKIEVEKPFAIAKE
Chain of CypF (P30405 30-207): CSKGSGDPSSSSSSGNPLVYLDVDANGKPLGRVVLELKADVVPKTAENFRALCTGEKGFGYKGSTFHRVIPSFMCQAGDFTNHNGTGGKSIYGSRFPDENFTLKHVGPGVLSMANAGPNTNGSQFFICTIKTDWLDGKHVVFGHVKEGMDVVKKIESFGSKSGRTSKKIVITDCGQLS
Chain of cyclophilin A (CypA) (P62937 whole entry): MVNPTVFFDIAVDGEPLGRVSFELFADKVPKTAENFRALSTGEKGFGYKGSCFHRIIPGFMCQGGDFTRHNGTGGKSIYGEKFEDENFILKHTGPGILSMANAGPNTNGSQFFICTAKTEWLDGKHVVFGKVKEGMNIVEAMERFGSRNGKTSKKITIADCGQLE
Chain of organic anion transporting polypeptide 1B1 (OATP1B1) (Q9Y6L6 whole entry): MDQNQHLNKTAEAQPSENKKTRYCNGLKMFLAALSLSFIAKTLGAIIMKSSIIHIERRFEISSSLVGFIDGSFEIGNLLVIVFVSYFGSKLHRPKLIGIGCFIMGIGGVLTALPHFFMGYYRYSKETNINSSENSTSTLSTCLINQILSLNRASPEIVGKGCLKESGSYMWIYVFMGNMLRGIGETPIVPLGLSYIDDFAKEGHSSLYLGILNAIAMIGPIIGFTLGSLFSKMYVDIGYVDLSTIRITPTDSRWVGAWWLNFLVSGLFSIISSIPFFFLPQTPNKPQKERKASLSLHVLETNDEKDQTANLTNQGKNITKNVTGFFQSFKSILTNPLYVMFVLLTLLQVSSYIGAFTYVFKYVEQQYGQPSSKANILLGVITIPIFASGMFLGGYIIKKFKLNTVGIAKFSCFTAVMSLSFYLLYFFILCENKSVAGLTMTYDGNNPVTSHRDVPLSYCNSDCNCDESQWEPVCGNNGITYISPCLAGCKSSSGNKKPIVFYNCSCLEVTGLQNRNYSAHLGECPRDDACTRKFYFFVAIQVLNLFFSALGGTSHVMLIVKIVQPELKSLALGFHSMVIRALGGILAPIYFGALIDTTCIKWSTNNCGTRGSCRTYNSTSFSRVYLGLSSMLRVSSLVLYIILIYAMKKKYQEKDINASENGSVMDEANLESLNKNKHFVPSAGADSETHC
Chain of Human MRP2 (Q92887 whole entry): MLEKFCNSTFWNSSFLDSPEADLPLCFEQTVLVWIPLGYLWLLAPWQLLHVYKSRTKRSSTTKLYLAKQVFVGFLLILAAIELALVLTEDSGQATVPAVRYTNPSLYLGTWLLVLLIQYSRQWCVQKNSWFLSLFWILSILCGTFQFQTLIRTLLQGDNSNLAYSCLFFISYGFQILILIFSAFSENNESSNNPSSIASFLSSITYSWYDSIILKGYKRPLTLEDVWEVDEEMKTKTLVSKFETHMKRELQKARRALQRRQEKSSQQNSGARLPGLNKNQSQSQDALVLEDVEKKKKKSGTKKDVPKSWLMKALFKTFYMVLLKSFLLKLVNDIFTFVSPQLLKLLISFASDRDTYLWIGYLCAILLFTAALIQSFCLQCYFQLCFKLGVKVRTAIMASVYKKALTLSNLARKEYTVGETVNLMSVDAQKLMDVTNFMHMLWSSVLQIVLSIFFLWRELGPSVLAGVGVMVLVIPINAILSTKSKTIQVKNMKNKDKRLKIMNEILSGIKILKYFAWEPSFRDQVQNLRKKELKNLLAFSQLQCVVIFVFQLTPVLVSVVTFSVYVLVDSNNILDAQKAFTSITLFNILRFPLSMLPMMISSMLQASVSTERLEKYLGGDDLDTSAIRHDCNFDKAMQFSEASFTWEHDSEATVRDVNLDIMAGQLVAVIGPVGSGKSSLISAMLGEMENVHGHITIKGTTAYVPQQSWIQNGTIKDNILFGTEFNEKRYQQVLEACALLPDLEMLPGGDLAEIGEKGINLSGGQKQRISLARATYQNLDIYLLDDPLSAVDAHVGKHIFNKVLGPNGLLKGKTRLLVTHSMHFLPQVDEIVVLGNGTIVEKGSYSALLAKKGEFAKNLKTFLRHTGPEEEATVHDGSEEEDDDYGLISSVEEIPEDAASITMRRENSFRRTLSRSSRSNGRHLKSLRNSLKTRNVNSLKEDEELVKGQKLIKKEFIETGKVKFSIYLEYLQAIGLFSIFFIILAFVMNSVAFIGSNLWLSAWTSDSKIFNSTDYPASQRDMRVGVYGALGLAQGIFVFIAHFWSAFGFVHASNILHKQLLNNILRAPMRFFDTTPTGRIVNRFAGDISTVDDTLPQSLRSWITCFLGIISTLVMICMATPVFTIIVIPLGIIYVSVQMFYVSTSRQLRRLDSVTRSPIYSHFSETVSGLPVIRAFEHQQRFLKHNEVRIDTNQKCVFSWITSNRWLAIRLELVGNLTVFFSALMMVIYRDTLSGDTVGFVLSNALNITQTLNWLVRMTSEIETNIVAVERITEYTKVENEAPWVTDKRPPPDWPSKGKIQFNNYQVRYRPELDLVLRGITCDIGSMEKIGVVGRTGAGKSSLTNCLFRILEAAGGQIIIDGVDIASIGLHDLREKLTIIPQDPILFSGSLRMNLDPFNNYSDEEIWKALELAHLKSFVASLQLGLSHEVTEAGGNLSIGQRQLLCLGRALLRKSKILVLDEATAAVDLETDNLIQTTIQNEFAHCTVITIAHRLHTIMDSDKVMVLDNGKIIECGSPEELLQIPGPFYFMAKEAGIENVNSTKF

| SMILES | Ki [1] | IC50 [2] | CypA Kd [3] | CypB Kd [4] | IC50 [5] | CypF Kd [6] | IC50 [7] | IC50 [8] |
| --- | --- | --- | --- | --- | --- | --- | --- | --- |
| C/C=C/C[C@@H](C)[C@@H](O)[C@H]1C(=O)N[C@@H](CC)C(=O)N(C)[C@H](C)C(=O)N(C)[C@@H]([C@H](C)CCOC)C(=O)N[C@@H](C(C)C)C(=O)N(C)[C@@H](CC(C)C)C(=O)N[C@@H](C)C(=O)N[C@H](C)C(=O)N(C)[C@@H](CC(C)C)C(=O)N(C)[C@@H](CC(C)C)C(=O)N(C)[C@@H](C(C)C)C(=O)N1C [Compound 2.13, 3-[D-Ala]-4-[(2S,3R)-5-methoxy-3-methyl-2-(methylamino)pentanoyl]-cyclosporin] (cyclo(A[dA][NMeL][NMeL][NMeV][MeBmt][Abu][dNMeA][X2]V[NMeL])) | > 50 µM | 2.3 µM | 1.7 | 0.8 | 0.041 µM | 0.0008 µM | 13 µM | 2.6 µM |
| C/C=C/C[C@@H](C)[C@@H](O)[C@H]1C(=O)N[C@@H](CC)C(=O)N(C)[C@H](C)C(=O)N(C)[C@@H]([C@H](C)COCCN2CCS(=O)(=O)CC2)C(=O)N[C@@H](C(C)C)C(=O)N(C)[C@@H](CC(C)C)C(=O)N[C@@H](C)C(=O)N[C@H](C)C(=O)N(C)[C@@H](CC(C)C)C(=O)N(C)[C@@H](CC(C)C)C(=O)N(C)[C@@H](C(C)C)C(=O)N1C [Compound 2.8.2] (cyclo(A[dA][NMeL][NMeL][NMeV][MeBmt][Abu][dNMeA][X7]V[NMeL])) |  | 3 µM | 1.6 | 0.6 |  | 0.0006 µM | 28 µM |  |
| C/C=C/C[C@@H](C)[C@@H](O)[C@H]1C(=O)N[C@@H](CC)C(=O)N(C)[C@H](C)C(=O)N(C)[C@@H]([C@H](C)CN2CCN(S(C)(=O)=O)CC2)C(=O)N[C@@H](C(C)C)C(=O)N(C)[C@@H](CC(C)C)C(=O)N[C@@H](C)C(=O)N[C@H](C)C(=O)N(C)[C@@H](CC(C)C)C(=O)N(C)[C@@H](CC(C)C)C(=O)N(C)[C@@H](C(C)C)C(=O)N1C [Compound 2.5.5, 3-[D-Ala]-4-[(2S,3R)-3-methyl-2-(methylamino)-4-(4-(methylsulfonyl)piperazin-1-yl)butanoyl]-cyclosporin] (cyclo(A[dA][NMeL][NMeL][NMeV][MeBmt][Abu][dNMeA][X16]V[NMeL])) |  | 4.8 µM | 3.3 | 1.9 | 0.066 µM | 0.0017 µM | 13 µM | 2.8 µM |
| C/C=C/C[C@@H](C)[C@@H](O)[C@H]1C(=O)N[C@@H](CC)C(=O)N(C)[C@H](C)C(=O)N(C)[C@@H]([C@H](C)COC)C(=O)N[C@@H](C(C)C)C(=O)N(C)[C@@H](CC(C)C)C(=O)N[C@@H](C)C(=O)N[C@H](C)C(=O)N(C)[C@@H](CC(C)C)C(=O)N(C)[C@@H](CC(C)C)C(=O)N(C)[C@@H](C(C)C)C(=O)N1C [Compound 2.1, 3-[D-Ala]-4-[(2S,3S)-4-methoxy-3-methyl-2-(methylamino)butanoyl]-cyclosporin] | > 50 µM | 5.1 µM | 2.05 | 1.45 | 0.029 µM | 0.0013 µM | 14 µM | 10.6 µM |
| C/C=C/C[C@@H](C)[C@@H](O)[C@H]1C(=O)N[C@@H](CC)C(=O)N(C)[C@H](C)C(=O)N(C)[C@@H]([C@H](C)COCCN2CCOCC2)C(=O)N[C@@H](C(C)C)C(=O)N(C)[C@@H](CC(C)C)C(=O)N[C@@H](C)C(=O)N[C@H](C)C(=O)N(C)[C@@H](CC(C)C)C(=O)N(C)[C@@H](CC(C)C)C(=O)N(C)[C@@H](C(C)C)C(=O)N1C [Compound 2.8.1, 3-[D-Ala]-4-[(2S,3S)-3-methyl-2-(methylamino)-4-(2-morpholinoethoxy)butanoyl]-cyclosporin] (cyclo(A[dA][NMeL][NMeL][NMeV][MeBmt][Abu][dNMeA][NMeAbu(3S-Me,4-OC2H4Mor)]V[NMeL])) | > 50 µM | 7.6 µM | 1.4 | 0.7 |  | 0.0007 µM | 23 µM |  |
| C/C=C/C[C@@H](C)[C@@H](O)[C@H]1C(=O)N[C@@H](CC)C(=O)N(C)[C@H](C)C(=O)N(C)[C@@H]([C@H](C)COCCOC(=O)N2CCN(C)CC2)C(=O)N[C@@H](C(C)C)C(=O)N(C)[C@@H](CC(C)C)C(=O)N[C@@H](C)C(=O)N[C@H](C)C(=O)N(C)[C@@H](CC(C)C)C(=O)N(C)[C@@H](CC(C)C)C(=O)N(C)[C@@H](C(C)C)C(=O)N1C (stereo in doubt) [Compound 2.9, 3-[D-Ala]-4-[(2S,3S)-3-methyl-2-(methylamino)-4-(2-((4-methylpiperazine-1-carbonyl)oxy)ethoxy)butanoyl]-cyclosporin] | > 50 µM | 8.7 µM | 0.9 | 0.5 | 0.058 µM | 0.0004 µM | 30 µM | 13.3 µM |
| C/C=C/C[C@@H](C)[C@@H](O)[C@H]1C(=O)N[C@@H](CC)C(=O)N(C)[C@H](C)C(=O)N(C)[C@@H]([C@H](C)CCN2CCN(CCOC)CC2)C(=O)N[C@@H](C(C)C)C(=O)N(C)[C@@H](CC(C)C)C(=O)N[C@@H](C)C(=O)N[C@H](C)C(=O)N(C)[C@@H](CC(C)C)C(=O)N(C)[C@@H](CC(C)C)C(=O)N(C)[C@@H](C(C)C)C(=O)N1C [Compound 2.18.3, 3-[D-Ala]-4-[(2S,3R)-5-(4-(2-methoxyethyl)piperazin-1-yl)-3-methyl-2-(methylamino)pentanoyl]-cyclosporin] (cyclo(A[dA][NMeL][NMeL][NMeV][MeBmt][Abu][dNMeA][X79]V[NMeL])) | > 50 µM | 9.1 µM | 0.9 | 0.6 | 0.073 µM | 0.0005 µM |  | 11.1 µM |
| C/C=C/C[C@@H](C)[C@@H](O)[C@H]1C(=O)N[C@@H](CC)C(=O)N(C)[C@H](C)C(=O)N(C)[C@@H]([C@@H](C)CN2CCN(C3COC3)CC2)C(=O)N[C@@H](C(C)C)C(=O)N(C)[C@@H](CC(C)C)C(=O)N[C@@H](C)C(=O)N[C@H](C)C(=O)N(C)[C@@H](CC(C)C)C(=O)N(C)[C@@H](CC(C)C)C(=O)N(C)[C@@H](C(C)C)C(=O)N1C [Compound 2.17.5, 3-[D-Ala]-4[(2S,3S)-2-Amino-3-methyl-4-(4-oxetan-3-yl-piperazin-1-yl)-butanoyl]-cyclosporin] (cyclo(A[dA][NMeL][NMeL][NMeV][MeBmt][Abu][dNMeA][X6]V[NMeL])) | > 50 µM | 1.8 µM | 0.7 | 0.5 | 0.033 µM | 0.0004 µM |  | 35.2 µM |
| C/C=C/C[C@@H](C)[C@@H](O)[C@H]1C(=O)N[C@@H](CC)C(=O)N(C)[C@H](C)C(=O)N(C)[C@@H]([C@@H](C)CN2CCN(C3CCC3)CC2)C(=O)N[C@@H](C(C)C)C(=O)N(C)[C@@H](CC(C)C)C(=O)N[C@@H](C)C(=O)N[C@H](C)C(=O)N(C)[C@@H](CC(C)C)C(=O)N(C)[C@@H](CC(C)C)C(=O)N(C)[C@@H](C(C)C)C(=O)N1C [Compound 2.17.3, 3-[D-Ala]-4[(2S,3S)-2-Amino-4-(4-cyclobutyl-piperazin-1-yl)-3-methyl-butanoyl]-cyclosporin] (cyclo(A[dA][NMeL][NMeL][NMeV][MeBmt][Abu][dNMeA][X12]V[NMeL])) | > 50 µM | 4 µM | 0.5 | 0.4 | 0.031 µM | 0.0003 µM |  | 6.7 µM |
| C/C=C/C[C@@H](C)[C@@H](O)[C@H]1C(=O)N[C@@H](CC)C(=O)N(C)[C@H](C)C(=O)N(C)[C@@H]([C@@H](C)CN2CCN(CC)CC2)C(=O)N[C@@H](C(C)C)C(=O)N(C)[C@@H](CC(C)C)C(=O)N[C@@H](C)C(=O)N[C@H](C)C(=O)N(C)[C@@H](CC(C)C)C(=O)N(C)[C@@H](CC(C)C)C(=O)N(C)[C@@H](C(C)C)C(=O)N1C [Compound 2.17.2, 3-[D-Ala]-4[(2S,3S)-2-Amino-4-(4-ethyl-piperazin-1-yl)-3-methyl-butanoyl]-cyclosporin] (cyclo(A[dA][NMeL][NMeL][NMeV][MeBmt][Abu][dNMeA][X11]V[NMeL])) | > 50 µM | 5.1 µM | 0.6 | 0.5 | 0.035 µM | 0.0005 µM |  | 14.5 µM |

Source: US9566312B2, “Cyclic peptides and use as medicines” (priority 2012, dated 2017)
